Experimental data published in ChEMBL document CHEMBL5036306 (J Med Chem, 2021).
Activity calls are given as the source filed them. The rule behind the calls is not given here.

How the values were obtained:
[1] = system: N9; assay: Immunomodulatory activity in mouse N9 microglial cells assessed as reduction in LPS-induced iNOS expression incubated for 24 hrs by Western blot analysis; type: functional, cell-based; settings: dose 0.1-5 µM
[2] = system: Mus musculus; assay: Neuroprotection against mouse model of Alzheimer's disease at 1 mg/kg; type: functional, organism-based
[3] = system: Mus musculus; assay: Anti-alzheimer activity against amyloid beta (25 to 35) induced working memory deficit mouse assessed as step-through latency time to enter dark compartment at 0.1 to 0.3 mg/kg, ip administered for 7 days and measured on day 9 days by passive avoidance test; type: functional, organism-based; settings: dose 0.1-0.3 mg/kg, time 9.0 day
[4] = system: Mus musculus; assay: Cognitive enhancing effect in mouse model of Alzheimer's disease at 1 mg/kg; type: functional, organism-based
[5] = system: Mus musculus; assay: Anti-alzheimer activity against amyloid beta (25 to 35) induced working memory deficit in mouse assessed as increase in spontaneous alternation performance at 0.3 to 1 mg/kg, ip administered for 7 days and measured on day 8 by Y-maze test; type: functional, organism-based; settings: dose 0.3-1 mg/kg, time 8.0 day
[6] = biological target: T1, Protein deacetylase HDAC6 (Mus musculus) (UniProt Q9Z2V5); assay: Inhibition of HDAC6 in mouse HT-22 cells assessed as increase in acetylated histone H3 level at 20 to 500 nM after 24 hrs by Western blotting analysis; type: cell-based; settings: dose 20-500 nM
T1 sequence (whole entry): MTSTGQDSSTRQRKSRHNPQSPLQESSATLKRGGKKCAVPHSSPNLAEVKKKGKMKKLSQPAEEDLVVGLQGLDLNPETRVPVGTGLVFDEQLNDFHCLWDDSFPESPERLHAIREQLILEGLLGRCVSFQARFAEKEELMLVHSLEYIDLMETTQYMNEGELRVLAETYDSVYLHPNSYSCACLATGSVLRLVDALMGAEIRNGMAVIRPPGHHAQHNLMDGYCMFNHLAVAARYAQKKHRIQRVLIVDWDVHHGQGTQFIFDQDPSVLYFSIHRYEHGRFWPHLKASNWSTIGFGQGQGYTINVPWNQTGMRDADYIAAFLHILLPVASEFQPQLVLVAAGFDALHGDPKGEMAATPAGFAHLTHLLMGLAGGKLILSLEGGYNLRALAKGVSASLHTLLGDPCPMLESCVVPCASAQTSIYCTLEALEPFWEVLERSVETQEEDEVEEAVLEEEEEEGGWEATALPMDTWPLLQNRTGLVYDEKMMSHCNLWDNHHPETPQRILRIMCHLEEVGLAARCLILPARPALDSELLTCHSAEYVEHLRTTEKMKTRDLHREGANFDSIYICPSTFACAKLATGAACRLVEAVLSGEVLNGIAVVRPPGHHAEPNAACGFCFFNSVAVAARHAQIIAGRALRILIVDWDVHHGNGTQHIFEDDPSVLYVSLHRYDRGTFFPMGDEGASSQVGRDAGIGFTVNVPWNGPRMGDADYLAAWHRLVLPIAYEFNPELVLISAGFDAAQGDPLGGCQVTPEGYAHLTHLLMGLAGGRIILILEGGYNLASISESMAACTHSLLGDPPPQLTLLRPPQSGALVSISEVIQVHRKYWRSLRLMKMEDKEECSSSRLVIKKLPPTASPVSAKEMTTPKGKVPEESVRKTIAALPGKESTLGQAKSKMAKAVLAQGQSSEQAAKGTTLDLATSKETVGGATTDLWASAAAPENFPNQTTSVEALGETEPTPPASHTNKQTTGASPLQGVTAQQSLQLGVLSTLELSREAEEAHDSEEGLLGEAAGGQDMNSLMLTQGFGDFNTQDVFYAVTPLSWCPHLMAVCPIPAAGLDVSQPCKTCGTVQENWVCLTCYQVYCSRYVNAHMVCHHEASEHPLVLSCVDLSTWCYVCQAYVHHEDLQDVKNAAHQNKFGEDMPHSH

[7] = Toxicity in mouse model of Alzheimer's disease assessed as drug tolerability at 0.3 to 3 mg/kg, ip measured after 7 days; type: organism-based; settings: in vivo, 168 h, dose 0.3-3 mg/kg, time 7 day
[8] = system: Mus musculus; assay: Anti-alzheimer activity against amyloid beta (25 to 35) induced working memory deficit in mouse assessed as increase in spontaneous alternation performance at 0.3 mg/kg, ip administered for 7 days and measured on day 8 by Y-maze test; type: functional, organism-based; settings: time 8.0 day
[9] = biological target: T1, Protein deacetylase HDAC6 (Mus musculus); assay: Inhibition of HDAC6 in mouse HT-22 cells assessed as increase in acetylated histone H4 level at 20 to 500 nM after 24 hrs by Western blotting analysis; type: cell-based; settings: dose 20-500 nM
[10] = biological target: T1, Protein deacetylase HDAC6 (Mus musculus); assay: Inhibition of HDAC6 in mouse HT-22 cells assessed as increase in acetylated tubulin level at 20 to 500 nM after 24 hrs by Western blotting analysis; type: cell-based; settings: dose 20-500 nM
[11] = system: Mus musculus; assay: Anti-alzheimer activity against amyloid beta (25 to 35) induced working memory deficit mouse assessed as step-through latency time to enter dark compartment at 1 mg/kg, ip administered for 7 days and measured on day 9 days by passive avoidance test; type: functional, organism-based; settings: time 9.0 day
[12] = system: N9; assay: Immunomodulatory activity in mouse N9 microglial cells assessed as reduction in LPS-induced IL1beta level incubated for 24 hrs by colorimetric assay; type: functional, cell-based; settings: dose 0.1-5 µM
[13] = biological target: T1, Protein deacetylase HDAC6 (Mus musculus); assay: Inhibition of HDAC6 in mouse HT-22 cells assessed as increase in acetylated tubulin level at […] after 24 hrs by Western blotting analysis; type: cell-based

Question: Which Activity [1] does the source give for `COc1ccc2[nH]cc(CCN(Cc3ccc(C(=O)NO)cc3)C(=O)/C=C/c3ccc(O)c(OC)c3)c2c1` here?
Answer: Dose-Dependent Effect

Question: What about the Activity [2] of the same compound?
Answer: Active

Question: What about the Activity [3] of the same compound?
Answer: Active

Question: And the Activity [4]?
Answer: Active

Question: And the Activity [5]?
Answer: Active

Question: What about the inhibition [6] of the same compound?
Answer: inactive

Question: And the Activity [7]?
Answer: Non-Toxic

Question: What about the Activity [8] of the same compound?
Answer: Active

Question: And the inhibition [9]?
Answer: inactive

Question: And the inhibition [10]?
Answer: Active

Question: What about the Activity [11] of the same compound?
Answer: inactive

Question: What about the Activity [12] of the same compound?
Answer: Dose-Dependent Effect

Question: Which inhibition [13] does the source give for `COc1ccc2c(c1)c(CCNC(C)=O)cn2Cc1ccc(C(=O)NO)cc1` here?
Answer: Active
